{"source": "patent US10882818B1", "about": "“P-bromoaniline cassic acid ester with antibacterial activity and a method of preparing the same” (ZHUHAI JINAN SELENIUM SOURCE NANOTECHNOLOGY CO., LTD., priority 2020, dated 2021)", "format_in_all_cases": "cell-based", "key": {"[1]": {"tested_on": "multidrug-resistant Pseudomonas aeruginosa MDR-PA 18-174", "assay": "Antibacterial activity test, MIC by microbroth dilution", "conditions": "for Minimum bacteriostatic concentration: MDR-PA 18-174, microbroth dilution, 37° C., 20-22 hours", "description": "(§1) The minimal inhibitory concentration (MIC) of the compounds as determined by microbroth dilution method with gentamicin, cefazolin sodium and ceftriaxone sodium as positive control.\n(§2) The experimental strains included methicillin-resistant Gram-positive bacteria: methicillin-resistant Staphylococcus aureus MRSA 18-222, 18-575; multiple drug-resistant Gram-negative bacteria: vancomycin-resistant enterococci VRE 18-80, 18-94, multidrug-resistant Pseudomonas aeruginosa MDR-PA 18-1774, 18-202, carbapenem-resistant Acinetobacter baumannii CR-AB 18-183, 18-560. All the experimental strains were donated by Huashan Hospital affiliated to Fudan University (Institute of Antibiotics, Fudan University) and used after routine identification.\n(§3) Preparation of MHB medium: 20.0 g MHB medium was added to 1 L distilled water, boiled until completely dissolved, packed in conical bottles and sterilized at 121° C. for 15 min.\n(§4) The experimental strain was cultured to the logarithmic growth phase: under aseptic condition, the experimental strain was inoculated into 100 mL MHB medium and incubated in a constant temperature and humidity incubator at 37° C. for 20-22 hours.\n(§5) Preparation of storage solution: weighing the sample to be tested, dissolving it with 1% DMSO solution, preparing a storage solution with a concentration of 2560 μg/mL; weighing a positive reference substance, dissolving it with aseptic distilled water, and configuring a storage solution with a concentration of 2560 μg/mL.\n(§6) Preparation of bacterial suspension: under aseptic condition, the experimental strains cultured to logarithmic growth phase were adjusted to 0.5 MCF turbidity standard with MHB medium and diluted according to 1:10, and the bacterial suspension with concentration of 10^6 CFU/mL was prepared for standby.\n(§7) Dilution of storage solution and inoculation of experimental strain: under aseptic condition, the storage solution was diluted to 256 μg/mL solution; taking a sterile 96-well plate, adding 200 μL MHB medium to the 12th well, and adding 100 μL MHB medium to each well; adding 100 μL of positive control solution to the first well, mixing well, and sucking 100 μL from it and discarding; adding 100 μL of the compound sample solution to the second well, mixing well, and then pipetting 100 μL to the third well; after mixing, pipetting 100 μL to the fourth well, and diluting to the 11th well in this way; finally, 100 μL was pipetted from the 11th well and discarded, the 12th hole was the growth control without drugs. The concentration of the positive reference substance is 128 μg/mL; the concentrations of the sample solution are 128, 64, […], 8, 4, 2, 1, 0.5, 0.25 μg/mL, respectively. Then, 100 μL of the prepared bacterial suspension is added to each well, so that the final concentration of the bacterial liquid in each well is 5×10^5 CFU/mL.\n(§8) Incubation: covering the 96-well plate inoculated with the experimental strains, and incubating in a constant temperature and humidity box at 37° C. for 20-22 hours.\nIn FIGS. 1-6, the twelve wells represent twelve groups, from left to right, positive, 128 μg/mL, 64 μg/mL, 32 μg/mL, 16 μg/mL, 8 μg/mL, 4 μg/mL, 2 μg/mL, 1 μg/mL, […], Negative."}, "drug-resistant bacteria": {"tested_on": "drug-resistant bacteria", "assay": "Antibacterial activity test, overall result on the strain panel", "conditions": "all experimental strains, up to 128 μg/mL", "description": "as §1, §2, §3\nThe experimental strain was cultured to the logarithmic growth phase: under aseptic condition, the experimental strain was inoculated into 100 mL MHB medium and incubated in a constant temperature and humidity incubator at 37° C. for 20-22 hours. […]"}, "[2]": {"tested_on": "methicillin-resistant Staphylococcus aureus MRSA 18-575", "assay": "Antibacterial activity test, MIC by microbroth dilution", "conditions": "37° C., 20-22 hours", "description": "as §1, §2, §3, §4, §5, §6, §7, §8"}, "[3]": {"tested_on": "multidrug-resistant Pseudomonas aeruginosa MDR-PA 18-202", "assay": "Antibacterial activity test, MIC by microbroth dilution", "conditions": "37° C., 20-22 hours", "description": "as §1, §2, §3, §4, §5, §6, §7, §8"}, "[4]": {"tested_on": "carbapenem-resistant Acinetobacter baumannii CR-AB 18-560", "assay": "Antibacterial activity test, MIC by microbroth dilution", "conditions": "37° C., 20-22 hours", "description": "as §1, §2, §3, §4, §5, §6, §7, §8"}, "[5]": {"tested_on": "carbapenem-resistant Acinetobacter baumannii CR-AB 18-183", "assay": "Antibacterial activity test, MIC by microbroth dilution", "conditions": "37° C., 20-22 hours", "description": "as §1, §2, §3, §4, §5, §6, §7, §8"}, "[6]": {"tested_on": "vancomycin-resistant enterococci VRE 18-80", "assay": "Antibacterial activity test, MIC by microbroth dilution", "conditions": "37° C., 20-22 hours", "description": "as §1, §2, §3, §4, §5, §6, §7, §8"}, "[7]": {"tested_on": "methicillin-resistant Staphylococcus aureus MRSA 18-222", "assay": "Antibacterial activity test, MIC by microbroth dilution", "conditions": "37° C., 20-22 hours", "description": "as §1, §2, §3, §4, §5, §6, §7, §8"}, "[8]": {"tested_on": "vancomycin-resistant enterococci VRE 18-94", "assay": "Antibacterial activity test, MIC by microbroth dilution", "conditions": "for Minimum bacteriostatic concentration: VRE 18-94, microbroth dilution, 37° C., 20-22 hours", "description": "as §1, §2, §3, §4, §5, §6, §7, §8"}}, "data": [{"molecule": "O=C(O)c1cc(O)c2c(c1)C(=O)c1cccc(O)c1C2=O", "note": "[Cassic acid]", "values": [{"measurement": "Minimum bacteriostatic concentration", "setting": "[1]", "result": ">128", "unit": "µg/mL"}, {"measurement": "inhibitory effect on drug-resistant bacteria", "setting": "drug-resistant bacteria", "result": "no inhibitory effect"}, {"measurement": "Minimum bacteriostatic concentration", "setting": "[2]", "result": ">128", "unit": "µg/mL"}, {"measurement": "Minimum bacteriostatic concentration", "setting": "[3]", "result": ">128", "unit": "µg/mL"}, {"measurement": "Minimum bacteriostatic concentration", "setting": "[4]", "result": ">128", "unit": "µg/mL"}, {"measurement": "Minimum bacteriostatic concentration", "setting": "[5]", "result": ">128", "unit": "µg/mL"}, {"measurement": "Minimum bacteriostatic concentration", "setting": "[6]", "result": ">128", "unit": "µg/mL"}, {"measurement": "Minimum bacteriostatic concentration", "setting": "[7]", "result": ">128", "unit": "µg/mL"}, {"measurement": "Minimum bacteriostatic concentration", "setting": "[8]", "result": ">128", "unit": "µg/mL"}]}, {"molecule": "Cc1nnc(SCC2=C(C(=O)O)N3C(=O)[C@@H](NC(=O)Cn4cnnn4)[C@H]3SC2)s1", "note": "[Cefazolin sodium, cefazolin sodium]", "values": [{"measurement": "Minimum bacteriostatic concentration", "setting": "[1]", "result": 8, "unit": "µg/mL"}, {"measurement": "Minimum bacteriostatic concentration", "setting": "[2]", "result": ">128", "unit": "µg/mL"}, {"measurement": "Minimum bacteriostatic concentration", "setting": "[3]", "result": 128, "unit": "µg/mL"}, {"measurement": "Minimum bacteriostatic concentration", "setting": "[4]", "result": ">128", "unit": "µg/mL"}, {"measurement": "Minimum bacteriostatic concentration", "setting": "[5]", "result": ">128", "unit": "µg/mL"}, {"measurement": "Minimum bacteriostatic concentration", "setting": "[6]", "result": 32, "unit": "µg/mL"}, {"measurement": "Minimum bacteriostatic concentration", "setting": "[7]", "result": ">128", "unit": "µg/mL"}, {"measurement": "Minimum bacteriostatic concentration", "setting": "[8]", "result": ">128", "unit": "µg/mL"}]}, {"molecule": "gentamicin", "values": [{"measurement": "Minimum bacteriostatic concentration", "setting": "[1]", "result": 0.0625, "unit": "µg/mL"}, {"measurement": "Minimum bacteriostatic concentration", "setting": "[2]", "result": 2, "unit": "µg/mL"}, {"measurement": "Minimum bacteriostatic concentration", "setting": "[3]", "result": 0.0625, "unit": "µg/mL"}, {"measurement": "Minimum bacteriostatic concentration", "setting": "[4]", "result": ">128", "unit": "µg/mL"}, {"measurement": "Minimum bacteriostatic concentration", "setting": "[5]", "result": ">128", "unit": "µg/mL"}, {"measurement": "Minimum bacteriostatic concentration", "setting": "[6]", "result": 0.0625, "unit": "µg/mL"}, {"measurement": "Minimum bacteriostatic concentration", "setting": "[7]", "result": 128, "unit": "µg/mL"}, {"measurement": "Minimum bacteriostatic concentration", "setting": "[8]", "result": ">128", "unit": "µg/mL"}]}, {"molecule": "O=C(Nc1ccc(Br)cc1)c1cc(O)c2c(c1)C(=O)c1cccc(O)c1C2=O", "note": "[p-Bromoaniline cassic acid ester, N-(4-bromophenyl)-4,5-dihydroxy-9,10-dioxo-9,10-dihydroanthracene-2-carboxamide]", "values": [{"measurement": "Minimum bacteriostatic concentration", "setting": "[1]", "result": 32, "unit": "µg/mL"}, {"measurement": "MIC", "setting": "[1]; multi-drug resistant Pseudomonas aeruginosa MDR-PA (strain number not given)", "result": 32, "unit": "µg/mL"}, {"measurement": "Minimum bacteriostatic concentration", "setting": "[2]", "result": ">128", "unit": "µg/mL"}, {"measurement": "Minimum bacteriostatic concentration", "setting": "[3]", "result": ">128", "unit": "µg/mL"}, {"measurement": "Minimum bacteriostatic concentration", "setting": "[4]", "result": ">128", "unit": "µg/mL"}, {"measurement": "Minimum bacteriostatic concentration", "setting": "[5]", "result": ">128", "unit": "µg/mL"}, {"measurement": "Minimum bacteriostatic concentration", "setting": "[6]", "result": ">128", "unit": "µg/mL"}, {"measurement": "Minimum bacteriostatic concentration", "setting": "[7]", "result": ">128", "unit": "µg/mL"}, {"measurement": "MIC", "setting": "[8]; Enterococcus, vancomycin-resistant enterococci VRE 18-94", "result": 128, "unit": "µg/mL"}, {"measurement": "Minimum bacteriostatic concentration", "setting": "[8]", "result": 128, "unit": "µg/mL"}]}, {"molecule": "CO/N=C(\\C(=O)N[C@@H]1C(=O)N2C(C(=O)O)=C(CSc3nc(=O)c(=O)[nH]n3C)CS[C@H]12)c1csc(N)n1", "note": "[Ceftriaxone sodium, ceftriaxone sodium]", "values": [{"measurement": "Minimum bacteriostatic concentration", "setting": "[1]", "result": 128, "unit": "µg/mL"}, {"measurement": "Minimum bacteriostatic concentration", "setting": "[2]", "result": ">128", "unit": "µg/mL"}, {"measurement": "Minimum bacteriostatic concentration", "setting": "[3]", "result": 16, "unit": "µg/mL"}, {"measurement": "Minimum bacteriostatic concentration", "setting": "[4]", "result": ">128", "unit": "µg/mL"}, {"measurement": "Minimum bacteriostatic concentration", "setting": "[5]", "result": ">128", "unit": "µg/mL"}, {"measurement": "Minimum bacteriostatic concentration", "setting": "[6]", "result": 8, "unit": "µg/mL"}, {"measurement": "Minimum bacteriostatic concentration", "setting": "[7]", "result": ">128", "unit": "µg/mL"}, {"measurement": "Minimum bacteriostatic concentration", "setting": "[8]", "result": ">128", "unit": "µg/mL"}]}, {"molecule": "Nc1ccc(Br)cc1", "note": "[P-Bromoaniline, P-bromoaniline]", "values": [{"measurement": "Minimum bacteriostatic concentration", "setting": "[1]", "result": ">128", "unit": "µg/mL"}, {"measurement": "inhibitory effect on drug-resistant bacteria", "setting": "drug-resistant bacteria", "result": "no inhibitory effect"}, {"measurement": "Minimum bacteriostatic concentration", "setting": "[2]", "result": ">128", "unit": "µg/mL"}, {"measurement": "Minimum bacteriostatic concentration", "setting": "[3]", "result": ">128", "unit": "µg/mL"}, {"measurement": "Minimum bacteriostatic concentration", "setting": "[4]", "result": ">128", "unit": "µg/mL"}, {"measurement": "Minimum bacteriostatic concentration", "setting": "[5]", "result": ">128", "unit": "µg/mL"}, {"measurement": "Minimum bacteriostatic concentration", "setting": "[6]", "result": ">128", "unit": "µg/mL"}, {"measurement": "Minimum bacteriostatic concentration", "setting": "[7]", "result": ">128", "unit": "µg/mL"}, {"measurement": "Minimum bacteriostatic concentration", "setting": "[8]", "result": ">128", "unit": "µg/mL"}]}]}
